{"source": "paper PMC10089289", "about": "“Well-Defined Heparin Mimetics Can Inhibit Binding of the Trimeric Spike of SARS-CoV-2 in a Length-Dependent Manner” (JACS Au, 2023)", "key": {"[1]": {"molecular_target": "trimeric spike glycoprotein of SARS-CoV-2", "assay": "SPR competition assay: binding of SARS-CoV-2 spike trimer to heparin-immobilized sensor chip", "details": "100 nM spike trimer, 25 °C, read-out: IC50, inhibition of binding of spike trimer to immobilized heparin (50% reduction in RUs)"}, "[2]": {"molecular_target": "SARS-CoV-2 Wuhan RBD binding to Vero E6 cells (Severe acute respiratory syndrome coronavirus 2, UniProt P0DTC2)", "assay_type": "cell-based"}, "[3]": {"tested_on": "Vero E6 cells", "details": "100 μg/mL; 24 h incubation"}, "[4]": {"molecular_target": "T1, platelet factor 4 (PF4) (Homo sapiens, UniProt P02776)", "T1 construct": "purchased Sino Biological, Inc", "T1 sequence (P02776 32-101)": "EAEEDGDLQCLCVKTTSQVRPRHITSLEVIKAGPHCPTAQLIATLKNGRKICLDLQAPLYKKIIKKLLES", "assay": "SPR competition assay: binding of PF4 to heparin chip", "details": "100 nM PF-4, 100 to 0.001 μg/mL", "excerpt": "(§1) A competition SPR method[32]−[34] was employed to examine the binding of compounds 1 and 6 to AT-III and PF4, and the results were compared to similar properties of UFH. First, biotinylated heparin was immobilized on a streptavidin-coated sensor chip, which was employed to establish equilibrium dissociation constants (KD) of AT-III and PF4 by employing different concentrations of these proteins as analytes (Figure S9). […] The determined KD values are in close agreement with literature reports.[34]−[36] Next, inhibition experiments were performed by premixing different concentrations of monovalent 1, tetravalent 6, and UFH with AT-III or PF4 followed by exposure to the sensor chip modified by heparin. […] The fact that tetravalent 6 does bind to PF4 supports the notion that it is a mimetic of heparin.\n(§2) 6. Coagulation-related proteins SPR binding and competition studies\n(§3) Coagulation-related proteins SPR binding studies: Human antithrombin-III (AT-III) was obtained from Haematologic technologies. […] Using Biacore T100 evaluation software, AT-III equilibrium dissociation constant (KD) was determined by fitting binding curves to two-state reaction model built in Biacore T100 evaluation software. For PF-4, steady-state affinity analysis was performed on the response curves of various PF-4 concentrations and KD value was calculated (Figure S9). […]"}, "[5]": {"molecular_target": "T2, antithrombin-III (AT-III) (Homo sapiens, UniProt P01008)", "T2 construct": "purchased Haematologic technologies", "T2 sequence (P01008 33-464)": "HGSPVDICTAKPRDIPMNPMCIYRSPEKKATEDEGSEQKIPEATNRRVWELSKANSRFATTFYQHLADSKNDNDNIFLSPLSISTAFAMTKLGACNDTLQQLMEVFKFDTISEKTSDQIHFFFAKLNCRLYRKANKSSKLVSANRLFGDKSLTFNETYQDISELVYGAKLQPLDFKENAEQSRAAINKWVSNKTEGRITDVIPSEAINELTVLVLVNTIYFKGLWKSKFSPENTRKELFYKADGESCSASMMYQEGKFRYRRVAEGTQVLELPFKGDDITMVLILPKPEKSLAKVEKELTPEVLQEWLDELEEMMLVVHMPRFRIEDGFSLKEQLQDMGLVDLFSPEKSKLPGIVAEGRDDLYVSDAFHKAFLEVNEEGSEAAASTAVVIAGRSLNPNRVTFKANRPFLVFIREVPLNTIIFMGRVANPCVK", "assay": "SPR competition assay: binding of AT-III to heparin chip", "details": "100 nM AT-III, 100 to 0.001 μg/mL", "excerpt": "as §1, §2, §3"}, "[6]": {"tested_on": "Factor-Xa", "assay": "AT-III mediated Factor-Xa inhibition assay (Biophen Anti-Xa, two-stage chromogenic)", "assay_type": "biochemical, bovine", "details": "colorimetric, Biophen Anti-Xa kit", "protocol": "(§4) To validate the SPR results, AT-III-mediated anti-Factor-Xa and anti-Factor-IIa activities of the mimetics and UFH were measured using a colorimetric assay (Biophen Anti-Xa and Anti-IIa kits, two-stage chromogenic assays) (Figures 6B and S16–S17).\n(§5) AT-III mediated Factor-IIa inhibition assays: Anti-Factor IIa activity of mimetics (1 and 6) and UFH was determined by BIOPHENÔ ANTI-IIa (2 Stages Heparin Assay) kit following manufacturer’s instructions. Human antithrombin (AT-III), purified human thrombin (Factor IIa) and thrombin specific chromogenic substrate [CS-01(38)] were reconstituted and prepared in specific buffers in accordance with kit protocol. […] After exactly 2 min, the reaction was stopped by introducing citric acid (2 wt.%, 80 µL), mixed and absorbance at 405 nm (POLARstar Optima, BMG Labtech) against the corresponding blank was measured. […] Measured blank value were subtracted from the absorbance measured for the corresponding test. The IC50 values (Figures S16) were calculated using dose-response equations [nonlinear regression, log(inhibitor) vs. response-variable slope (four parameters)] built in Prism software 9 (GraphPad Software, Inc.). […]\n(§6) AT-III mediated Factor-Xa inhibition assays: Anti-Factor Xa activity of mimetics (1 and 6) and UFH was determined by BIOPHENÔ ANTI-Xa (2 Stages Heparin Assay) kit following manufacturer’s instructions. […]"}, "[7]": {"molecular_target": "T3, Factor-IIa (thrombin) (Homo sapiens, UniProt P00734)", "T3 construct": "purchased BIOPHEN ANTI-IIa (2 Stages Heparin Assay) kit", "assay": "AT-III mediated Factor-IIa inhibition assay (Biophen Anti-IIa, two-stage chromogenic)", "assay_type": "biochemical", "details": "colorimetric, Biophen Anti-IIa kit", "protocol": "as §4, §5, §6"}}, "data": [{"compound": "CC(=O)NC1C(OC2C(C(=O)O)OC(OC3C(COS(=O)(=O)O)OC(OC4C(C(=O)O)OC(OC5C(COS(=O)(=O)O)OC(OC6C(C(=O)O)OC(OC7C(COS(=O)(=O)O)OC(OCCCCCN)C(NS(=O)(=O)O)C7O)C(OS(=O)(=O)O)C6O)C(NS(=O)(=O)O)C5O)C(OS(=O)(=O)O)C4O)C(NS(=O)(=O)O)C3O)C(O)C2O)OC(Cn2cc(CCC(=O)NCCCCCOC3OC(COS(=O)(=O)O)C(OC4OC(C(=O)O)C(OC5OC(COS(=O)(=O)O)C(OC6OC(C(=O)O)C(OC7OC(COS(=O)(=O)O)C(OC8OC(C(=O)O)C(O)C(O)C8O)C(O)C7NS(=O)(=O)O)C(O)C6OS(=O)(=O)O)C(O)C5NS(=O)(=O)O)C(O)C4OS(=O)(=O)O)C(O)C3NS(=O)(=O)O)nn2)C(O)C1O", "note": "(stereo not drawn) [Compound 4]", "values": [{"measurement": "IC50", "setting": "[1]", "value": "> 10", "unit": "µM"}]}, {"compound": "NCCCCCOC1OC(COS(=O)(=O)O)C(OC2OC(C(=O)O)C(OC3OC(COS(=O)(=O)O)C(OC4OC(C(=O)O)C(OC5OC(COS(=O)(=O)O)C(OC6OC(C(=O)O)C(O)C(O)C6O)C(O)C5NS(=O)(=O)O)C(O)C4OS(=O)(=O)O)C(O)C3NS(=O)(=O)O)C(O)C2OS(=O)(=O)O)C(O)C1NS(=O)(=O)O", "note": "(stereo not drawn) [Compound 1, GlcA-GlcNS6S-IdoA2S-GlcNS6S-IdoA2S-GlcNS6S]", "values": [{"measurement": "Inhibition of trimeric RBD binding to Vero E6 cells", "setting": "[2]; 125 μg/mL (62.6 μM), RBDs from Wuhan and delta", "value": "failed to invoke substantial inhibition"}, {"measurement": "Inhibition of Wuhan RBD binding to Vero E6 cells", "setting": "[2]; RBD pretreated with 10 and 125 μg/mL compound", "value": "no inhibition was detected"}, {"measurement": "Cytotoxicity on Vero E6 cells", "setting": "[3]", "value": "no toxicity"}, {"measurement": "IC50, inhibition of PF4 binding to heparin surface", "setting": "[4]", "value": "no inhibition was observed"}, {"measurement": "IC50, inhibition of AT-III binding to heparin surface", "setting": "[5]", "value": "no inhibitory potential"}, {"measurement": "IC50, AT-III-mediated inhibition of Factor-Xa", "setting": "[6]", "value": 70, "unit": "µg/mL"}, {"measurement": "IC50", "setting": "[1]", "value": "> 50", "unit": "µM"}, {"measurement": "IC50, AT-III-mediated inhibition of Factor-IIa", "setting": "[7]", "value": "failed to invoke any inhibition"}]}]}
